Assay results taken from patent US10047059B2, “Substituted quinoxalines for inhibiting kinase activity” (NEUPHARMA, INC., priority 2012, dated 2018).

Key:
A375 cells = experiment: Inhibition of cancer cell growth, MTT or MTS assay, A375; type: cell-based; settings: Homo sapiens, A-375, 72 h incubation
Procedure: (§1) Inhibition of cell growth by compounds was measured using MTT or MTS assay. Tumor cell lines were purchased from ATCC (American Type Culture Collection, Manassas, Va.). All cell lines were maintained in RPMI 1640 (Hyclone) supplemented with 10% fetal bovine serum (FBS, Hyclone), glutamine (2 mM, Hyclone), and antibiotics (penicillin 100 U/mL and streptomycin 50 μg/mL) at 37° C. in a humidified atmosphere of 5% CO2 in air. Taxol (as a positive control, Sigma) and compounds were dissolved in DMSO (Sigma), and the final concentration of DMSO in the medium was 1%. Tumor cells were plated in 96-well plates at densities of about 2000 (A375) or 4000 (A549 and Colo205) cells/well of a 96-well plate and allowed to adhere/grow for 24 h. They were then treated with various concentrations of drug and incubated for 72 h. For MTT method, medium was then removed by inverting and tapping the plates. 100 μL of MTT (0.5 mg/ml) was added to each well followed by an incubated at 37° C. for 4 h. MTT was then removed and 200 μL of DMSO was added to each well, and the ODs at 570 nm were measured after a 5 second shaking cycle in a 96-well spectrophotometer. For MTS method, 20 μL MTS (CellTiter 96 Aqueous One Solution, Promega) was added to each well followed by an incubated at 37° C. for 2-4 h, solutions were then directly put in a 96-well spectrophotometer, and the ODs at 490 nm were measured.
(§2) All concentrations of compounds were tested in triplicate and controls were averaged over 4 wells. IC50 was calculated by plotting the concentration of compound vs the percentage of inhibition in treated wells using GraphPad Prism 5. […] The scale utilized in Tables 7-9 is as follows: +++ less than 1000 nM; ++ between 1000 nM and 5000 nM; and + greater than 5000 nM. The scale utilized in […]

BRAF V600E = target: T1, BRAF V600E (Homo sapiens, UniProt P15056, V600E); experiment: Z'-LYTE kinase inhibition assay against BRAF V600E; type: biochemical; settings: % inhibition at 1 μM, Z'-LYTE method
T1 construct: purchased Invitrogen
Procedure: (§3) Inhibitory activities Inhibitory activities of compounds against BRAF, and BRAF V600E were measured by Invitrogen using Z′-LYTE® Method as briefly described in the following. 4× Test compounds are dissolved in 1% DMSO. […] ATP solutions are diluted to a 4×ATP working concentration in Kinase Buffer (50 mM HEPES pH 7.5, 0.01% BRIJ-35, 10 mM MgCl2, 1 mM EGTA). Reaction started by 30-second shaking of mixture consisting of 2.5 μL 4× test compound, […] and 2.5 μL 4×ATP Solution on Bar-coded Corning, low volume NBS, black 384-well plate (Corning Cat. #3676). Then the mixture was incubated for 60-minute at room temperature for the kinase reaction, followed by addition of 5 μL of a 1:1024 dilution of development reagent A and 30-second plate shake. The mixture was then incubated for another 60-minute at room temperature for development reaction. Fluorescence was read by plate reader. IC50 was calculated by plotting the concentration of compound vs the percentage of inhibition in treated wells using GraphPad Prism 5.
(§4) Table 2 and 3 show % inhibition at 1 μM of several compounds of the invention against BRAF and BRAF V600E, respectively, using Z′-LYTE® method.
The scale utilized in Table 4 is as follows: +++ less than 100 nM; and ++ greater than 100 nM.

Colo205 cells = experiment: Inhibition of cancer cell growth, MTT or MTS assay, Colo205; type: cell-based; settings: Homo sapiens, COLO 205, 72 h incubation
Procedure: as §1, §2

KDR (VEGFR2) = target: T2, KDR (VEGFR2) (Homo sapiens, UniProt P35968); experiment: Z'-LYTE kinase inhibition assay against KDR; type: biochemical; settings: Z'-LYTE method
T2 construct: purchased Invitrogen
Procedure: Inhibitory activities of compounds against KDR (VEGFR2) were also measured by Invitrogen using Z′-LYTE® Method as described above with the following modification. The 2×KDR (VEGFR2)/Tyr 01 mixture is prepared in 50 mM HEPES pH 7.5, 0.01% BRIJ-35, 10 mM MgCl2, 1 mM EGTA. The final 10 μL Kinase Reaction consists of 0.5-11.7 ng KDR (VEGFR2) and 2 μM Tyr 01 in 50 mM HEPES pH 7.5, 0.01% BRIJ-35, 10 mM MgCl2, 1 mM EGTA. After the 1 hour Kinase Reaction incubation, 5 μL of a 1:256 dilution of Development Reagent B is added.
The scale utilized in Table 6 is as follows: +++ less than 100 nM; and ++ greater than 100 nM

BRAF = target: T3, BRAF (Homo sapiens, UniProt P15056); experiment: Z'-LYTE kinase inhibition assay against BRAF; type: biochemical; settings: Z'-LYTE method
T3 construct: purchased Invitrogen
Procedure: as §3, §4

A549 cells = experiment: Inhibition of cancer cell growth, MTT or MTS assay, A549; type: cell-based; settings: Homo sapiens, 72 h incubation
Procedure: as §1, §2

T2 sequence (P35968 20-1356): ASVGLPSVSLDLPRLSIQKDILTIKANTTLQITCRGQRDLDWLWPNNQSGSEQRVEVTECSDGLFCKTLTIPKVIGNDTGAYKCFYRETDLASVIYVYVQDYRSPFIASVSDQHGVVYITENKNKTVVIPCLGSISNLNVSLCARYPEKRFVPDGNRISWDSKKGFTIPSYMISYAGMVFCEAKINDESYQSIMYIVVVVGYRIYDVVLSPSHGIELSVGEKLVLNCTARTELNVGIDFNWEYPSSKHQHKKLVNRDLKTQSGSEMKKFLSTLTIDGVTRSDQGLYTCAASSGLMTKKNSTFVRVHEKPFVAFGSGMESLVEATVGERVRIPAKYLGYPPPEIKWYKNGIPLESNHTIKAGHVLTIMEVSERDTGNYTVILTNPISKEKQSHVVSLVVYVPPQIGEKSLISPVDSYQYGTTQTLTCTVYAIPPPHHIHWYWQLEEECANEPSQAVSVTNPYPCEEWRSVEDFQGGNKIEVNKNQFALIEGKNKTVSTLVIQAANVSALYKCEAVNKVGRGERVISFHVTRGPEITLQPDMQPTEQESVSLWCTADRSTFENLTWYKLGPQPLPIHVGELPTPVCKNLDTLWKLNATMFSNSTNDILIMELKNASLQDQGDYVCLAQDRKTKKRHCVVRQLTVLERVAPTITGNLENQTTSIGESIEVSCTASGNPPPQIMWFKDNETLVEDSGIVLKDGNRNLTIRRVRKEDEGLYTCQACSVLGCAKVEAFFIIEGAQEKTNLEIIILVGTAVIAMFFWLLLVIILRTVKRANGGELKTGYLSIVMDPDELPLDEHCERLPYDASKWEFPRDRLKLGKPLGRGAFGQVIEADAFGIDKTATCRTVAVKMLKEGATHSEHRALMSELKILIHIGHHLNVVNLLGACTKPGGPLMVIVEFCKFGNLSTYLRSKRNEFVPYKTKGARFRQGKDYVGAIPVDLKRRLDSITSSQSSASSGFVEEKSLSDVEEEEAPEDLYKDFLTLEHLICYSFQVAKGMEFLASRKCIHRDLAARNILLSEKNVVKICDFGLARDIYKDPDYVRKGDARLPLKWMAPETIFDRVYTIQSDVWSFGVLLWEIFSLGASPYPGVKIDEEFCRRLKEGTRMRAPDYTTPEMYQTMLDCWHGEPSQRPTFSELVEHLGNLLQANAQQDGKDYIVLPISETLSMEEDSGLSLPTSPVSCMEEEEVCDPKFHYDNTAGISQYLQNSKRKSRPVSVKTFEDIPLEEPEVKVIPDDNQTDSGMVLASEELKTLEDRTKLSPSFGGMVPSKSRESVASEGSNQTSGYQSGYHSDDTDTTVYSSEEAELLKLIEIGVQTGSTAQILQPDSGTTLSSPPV
T1 sequence (P15056 whole entry V600E): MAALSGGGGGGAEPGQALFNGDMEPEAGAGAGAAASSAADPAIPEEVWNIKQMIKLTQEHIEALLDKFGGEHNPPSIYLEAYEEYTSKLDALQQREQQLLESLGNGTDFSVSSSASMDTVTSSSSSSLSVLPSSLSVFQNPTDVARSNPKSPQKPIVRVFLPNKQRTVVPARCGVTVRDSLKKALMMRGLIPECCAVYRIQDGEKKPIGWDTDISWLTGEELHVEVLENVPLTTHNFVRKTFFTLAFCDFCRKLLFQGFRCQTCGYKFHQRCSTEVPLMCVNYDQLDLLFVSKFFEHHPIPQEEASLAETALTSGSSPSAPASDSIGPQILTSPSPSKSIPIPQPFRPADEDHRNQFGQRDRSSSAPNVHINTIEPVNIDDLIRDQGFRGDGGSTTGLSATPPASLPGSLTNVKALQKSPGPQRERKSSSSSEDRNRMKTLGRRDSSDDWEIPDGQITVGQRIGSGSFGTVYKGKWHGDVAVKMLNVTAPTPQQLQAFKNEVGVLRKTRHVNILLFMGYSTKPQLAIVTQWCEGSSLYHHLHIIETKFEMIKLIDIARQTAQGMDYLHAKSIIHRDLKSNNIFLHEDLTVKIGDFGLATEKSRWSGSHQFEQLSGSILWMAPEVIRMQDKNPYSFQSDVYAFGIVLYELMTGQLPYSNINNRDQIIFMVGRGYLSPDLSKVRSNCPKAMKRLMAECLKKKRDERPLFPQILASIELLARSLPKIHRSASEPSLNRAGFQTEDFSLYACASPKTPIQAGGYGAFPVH
T3 sequence (P15056 whole entry): as the sequence (P15056 whole entry V600E) above, with E600V counted along it

Row | SMILES | IC50 (A375 cells) [nM] | inhibition at 1 µM (BRAF V600E) [%] | IC50 (Colo205 cells) [nM] | inhibition at 1 µM (KDR (VEGFR2)) [%] | inhibition at 1 µM (BRAF) [%] | IC50 (A549 cells) [nM] | IC50 (KDR (VEGFR2)) [nM]
1 | O=C(Nc1ccc(C(=O)c2ccc3nccnc3c2)cc1)Nc1cccc(C(F)(F)F)c1 [Compound C01, 1-(4-(quinoxaline-6-carbonyl)phenyl)-3-(3-(trifluoromethyl)phenyl)urea] | 1000 to 5000 | > 89 | > 5000 | < 70 | < 70 | > 5000 | –
2 | O=C(Nc1ccc(C(=O)c2ccc3nccnc3c2)cc1)Nc1cccc(F)c1 [Compound C02, 1-(3-fluorophenyl)-3-(4-(quinoxaline-6-carbonyl)phenyl)urea] | 1000 to 5000 | < 70 | – | < 70 | < 70 | 1000 to 5000 | –
3 | O=C(Nc1ccc(C(=O)c2ccc3ncc(N4CCOCC4)nc3c2)cc1)Nc1cccc(Cl)c1 [Compound C03, 1-(3-chlorophenyl)-3-(4-(3-morpholinoquinoxaline-6-carbonyl)phenyl)urea] | 1000 to 5000 | < 70 | – | < 70 | < 70 | 1000 to 5000 | –
4 | O=C(Nc1ccc(Cl)cc1)Nc1ccc(C(=O)c2ccc3ncc(N4CCOCC4)nc3c2)cc1 [Compound C04, 1-(4-chlorophenyl)-3-(4-(3-morpholinoquinoxaline-6-carbonyl)phenyl)urea] | – | < 70 | – | < 70 | < 70 | 1000 to 5000 | –
5 | O=C(Nc1ccc(F)cc1)Nc1ccc(C(=O)c2ccc3ncc(N4CCOCC4)nc3c2)cc1 [Compound C05, 1-(4-fluorophenyl)-3-(4-(3-morpholinoquinoxaline-6-carbonyl)phenyl)urea] | > 5000 | < 70 | – | < 70 | < 70 | > 5000 | –
6 | O=C(Nc1ccc(Cl)cc1)Nc1ccc(C(=O)c2ccc3ncc(N4CCNCC4)nc3c2)cc1 [Compound C09, 1-(4-chlorophenyl)-3-(4-(3-(piperazin-1-yl)quinoxaline-6-carbonyl)phenyl)urea] | 1000 to 5000 | > 89 | 1000 to 5000 | < 70 | 70 to 89 | 1000 to 5000 | –
7 | O=C(Nc1ccc(F)cc1)Nc1ccc(C(=O)c2ccc3ncc(N4CCNCC4)nc3c2)cc1 [Compound C10, 1-(4-fluorophenyl)-3-(4-(3-(piperazin-1-yl)quinoxaline-6-carbonyl)phenyl)urea] | 1000 to 5000 | > 89 | – | < 70 | < 70 | 1000 to 5000 | –
8 | O=C(Nc1ccc(C(=O)c2ccc3ncc(N4CCNCC4)nc3c2)cc1)Nc1cccc(Cl)c1 [Compound C11, 1-(3-chlorophenyl)-3-(4-(3-(piperazin-1-yl)quinoxaline-6-carbonyl)phenyl)urea] | 1000 to 5000 | > 89 | < 1000 | 70 to 89 | 70 to 89 | 1000 to 5000 | > 100
9 | O=C(Nc1ccc(C(=O)c2ccc3ncc(N4CCNCC4)nc3c2)cc1)Nc1ccc(Cl)c(C(F)(F)F)c1 [Compound C12, 1-(4-chloro-3-(trifluoromethyl)phenyl)-3-(4-(3-(piperazin-1-yl)quinoxaline-6-carbonyl)phenyl)urea] | < 1000 | 70 to 89 | 1000 to 5000 | 70 to 89 | < 70 | < 1000 | > 100
10 | N#Cc1ccc(NC(=O)Nc2ccc(C(=O)c3ccc4ncc(N5CCNCC5)nc4c3)cc2)cc1C(F)(F)F [Compound C16, 1-(4-cyano-3-(trifluoromethyl)phenyl)-3-(4-(3-(piperazin-1-yl)quinoxaline-6-carbonyl)phenyl)urea] | < 1000 | > 89 | > 5000 | > 89 | < 70 | 1000 to 5000 | > 100

Next, values leading:

Row | IC50 (A375 cells) [nM] | inhibition at 1 µM (BRAF V600E) [%] | IC50 (Colo205 cells) [nM] | inhibition at 1 µM (KDR (VEGFR2)) [%] | inhibition at 1 µM (BRAF) [%] | IC50 (A549 cells) [nM] | IC50 (KDR (VEGFR2)) [nM] | SMILES
11 | < 1000 | > 89 | – | < 70 | < 70 | 1000 to 5000 | – | O=C(Nc1ccc(C(=O)c2ccc3ncc(N4CCNCC4)nc3c2)cc1)Nc1ccc(C(F)(F)F)cc1 [Compound C13, 1-(4-(3-(piperazin-1-yl)quinoxaline-6-carbonyl)phenyl)-3-(4-(trifluoromethyl)phenyl)urea]
12 | 1000 to 5000 | > 89 | – | < 70 | < 70 | 1000 to 5000 | – | O=C(Nc1ccc(C(=O)c2ccc3ncc(N4CCNCC4)nc3c2)cc1)Nc1cccc(F)c1 [Compound C19, 1-(3-fluorophenyl)-3-(4-(3-(piperazin-1-yl)quinoxaline-6-carbonyl)phenyl)urea]
13 | 1000 to 5000 | > 89 | – | < 70 | < 70 | > 5000 | – | O=C(Nc1cccc(F)c1)Nc1ccc(C(=O)c2ccc3ncc(N4CCNCC4)nc3c2)c(F)c1 [Compound C20, 1-(3-fluoro-4-(3-(piperazin-1-yl)quinoxaline-6-carbonyl)phenyl)-3-(3-fluorophenyl)urea]
14 | < 1000 | > 89 | – | > 89 | < 70 | < 1000 | < 100 | N#Cc1ccc(CC(=O)Nc2ccc(C(=O)c3ccc4ncc(N5CCNCC5)nc4c3)c(F)c2)cc1C(F)(F)F [Compound C26, 2-(4-cyano-3-(trifluoromethyl)phenyl)-N-(3-fluoro-4-(3-(piperazin-1-yl)quinoxaline-6-carbonyl)phenyl)acetamide]
15 | > 5000 | 70 to 89 | – | < 70 | – | > 5000 | – | O=C(Nc1ccc(C(=O)c2ccc3ncc(C4CCNCC4)nc3c2)cc1)Nc1cccc(C(F)(F)F)c1 [Compound C27, 1-(4-(3-(piperidin-4-yl)quinoxaline-6-carbonyl)phenyl)-3-(3-(trifluoromethyl)phenyl)urea]
16 | 1000 to 5000 | 70 to 89 | – | < 70 | < 70 | > 5000 | – | O=C(Nc1ccc(C(=O)c2ccc3ncc(C4CCNCC4)nc3c2)cc1)Nc1ccc(F)c(C(F)(F)F)c1 [Compound C28, 1-(4-fluoro-3-(trifluoromethyl)phenyl)-3-(4-(3-(piperidin-4-yl)quinoxaline-6-carbonyl)phenyl)urea]
17 | 1000 to 5000 | < 70 | – | < 70 | – | 1000 to 5000 | – | N#Cc1cnc2ccc(C(=O)c3ccc(NC(=O)Nc4cccc(C(F)(F)F)c4)cc3F)cc2n1 [Compound C29, 1-(4-(3-cyanoquinoxaline-6-carbonyl)-3-fluorophenyl)-3-(3-(trifluoromethyl)phenyl)urea]
18 | 1000 to 5000 | 70 to 89 | – | < 70 | – | > 5000 | – | Cn1ccc(NC(=O)Nc2ccc(C(=O)c3ccc4ncc(N5CCNCC5)nc4c3)c(F)c2)n1 [Compound C31, 1-(3-fluoro-4-(3-(piperazin-1-yl)quinoxaline-6-carbonyl)phenyl)-3-(1-methyl-1H-pyrazol-3-yl)urea]
